The values that follow come from publication PMC9312958, “A Novel and Selective Dopamine Transporter Inhibitor, (S)-MK-26, Promotes Hippocampal Synaptic Plasticity and Restores Effort-Related Motivational Dysfunctions” (Biomolecules, 2022).

The nature of data set [1]: Plasma and brain compound levels and pharmacokinetic parameters after i.p. administration. Conditions: rat, 10 mg/kg i.p.; for concentration at 10 h: read-out: Clast. It counts as in vivo, male Sprague–Dawley rats. The method, then:
The bioavailability of (S)-MK-26 after intraperitoneal (i.p.) administration in male Sprague–Dawley rats (260–351 g) was outsourced to Evotec (Toulouse CEDEX, France, Study Number VDD10431). (S)-MK-26 at dose of 10 mg/kg of body weight was i.p. administered and blood samples and brains were collected at 0.083, 0.25, 0.5, 1, 3, 7, 10, and 24 h post-administration (3 rats per time point). Plasma and brain levels of (S)-MK-26 were measured by LC-MS by a standard validated protocol defined by the contractor, and the pharmacokinetic parameters were calculated from individual concentrations by WinNonLin7.0 (Phoenix64), a non-compartmental model.

For data set [2], the system named is naive young (12 weeks) male rats. The data set is described as follows: Open field, spontaneous locomotor activity. It is filed as in vivo, rat. The protocol:
Animals were habituated to the experimental room twenty-four hours prior to the start of the experiment. The open field consisted of a black wooden board (1.20 m × 1.20 m) surrounded by white wooden walls (50 cm in height); light was adjusted to 150 lux. Each animal was placed in the middle of the open-field arena (animal experiments conducted under BMBWF-66.009/235/V/3b/2018 regulations) and behavior was recorded for 10 min. Data analysis was performed using the AnyMaze software (Stoelting Co., IL, USA). The test consisted of one habituation session on the first day and one test session on the following day. Each animal received (S)-MK-26 at 10, 20, 0 and 1 mg/kg of body weight with wash-out period of nine days between each treatment.

The mark [3] stands for this setting: male, Sprague-Dawley, ip, brain.
The mark [4] stands for this setting: male, Sprague-Dawley, ip, plasma.

SMILES strings stand for the structures. Values joined by “and” are separate entries in the source; they are usually repeats but may differ in a detail not shown here. Identical values can stand only once. Like-named read-outs stand apart in the source and are kept apart here.

As usually defined, the AUC(0-t) is the area under the concentration-time curve up to a stated or last time point. The low end stands for less exposure, the high end for more exposure. The term Cmax denotes the maximum level reached in the sampled fluid or tissue. Usually Tmax stands for the time at which the peak concentration occurs.

In the case of `[O-][S@@+](Cc1cncs1)C(c1cccc(Cl)c1)c1cccc(Cl)c1` [(S)-MK-26, (S)-5-(((B(3-chlorophenyl)methyl)sulphinyl)methyl)thiazole], the “detectable up to (time)” value in data set [1] (brain and plasma) is reported as 10 h. In addition, in data set [1] (brain), the Tlast came to 10.0 h and the “time of maximum mean brain concentration” value came out at 15 min. The “maximum mean brain concentration” value in data set [1] (brain, at 15 min) turned out to be 634 ± 140 ng/g. In data set [1] (male, Sprague-Dawley, brain and plasma, ip, read-out: mean brain to plasma concentration ratio), the Kp worked out at 1.12 ± 0.19. In data set [1] (setting [3]), the area under the curve AUC(0-t) was 1960 ng·h/mL and 5.14 µM·h; the maximum concentration (Cmax) is 634 ng/mL and 1.67 µM; the time to peak (Tmax) was determined as 15 min; the concentration at 10 h stood at 19.2 nM. Moreover, in data set [1] (setting [4]), the AUC(0-t) was 1710 ng·h/mL and 4.5 µM·h; the Cmax is 624 ng/mL and 1.64 µM; the Tmax was found to be 30 min; the concentration at 10 h came out at 15.7 nM. Further, in data set [1] (plasma), the Tlast was found to be 10.0 h and the “time to peak mean plasma concentration” value is reported as at most 30 min. In addition, the “adverse effects during the pharmacokinetic study” value in data set [1] was “No adverse effects were observed”. For the same molecule, in data set [2] (1, 10, 20 mg/kg vs vehicle), the “effect on total distance travelled over 10 min” value is given as “no effect”. In data set [2] (highest dose (20 mg/kg), p = 0.0236), the “activity (distance travelled) within the initial 5 min of the test session” value is listed as “moderately increased activity”. Also, the “stereotypic or anxiogenic behavior” value in data set [2] (open field, 1, 10, 20 mg/kg) is “did not induce stereotypic or anxiogenic behavior”.
